Columns and labels:
HCT-8 cells = assay: HCT-8 cytotoxicity assay; type: cell-based
Procedure: (§1) HCT-8 and HFF cytotoxicity assays: Cytotoxicity of the compounds was determined against both confluent (the conditions of the infection assays) and growing HCT-8 and HFF host cells, as previously described. Cells were seeded into white-sided, clear-bottom 96-well plates and grown to either 40% or 100% confluency. Compounds were added to cells at various concentrations up to 100 µM in a final DMSO concentration of 0.5%. DMSO was run in parallel as a vehicle control. After 48 h, the viability of the cells was determined by either quantification of cellular ATP (Cell-Titer Glo cell viability assay; Promega, Madison WI, USA) or by MTT assay. Viability was determined 24 h after compound addition to HFF cells or 48 h after compound addition to HCT-8 cells or HepG2 cells. The percent cell growth was then calculated with the following formula: % Cell Growth = [RLUcompound/RLUDMSO] × 100. Samples were run in triplicate with two to three biological replicates.

HCT-8 cytotoxicity assay = type: cell-based; conditions: human; sub-confluent (~40% confluency); read-out: EC50 cytotoxicity against sub-confluent HCT-8 cells
Procedure: as §1

HepG2 human hepatocytes = assay: HepG2 cytotoxicity assay (MTS); type: cell-based; conditions: 48 h, mean +/- SD
Procedure: HepG2 cytotoxicity assay: Mammalian cell cytotoxicity was assessed in HepG2 human hepatocytes using an MTS 3-(4,5-dimethylthiazol-2-yl)-5-(3-carboxymethoxyphenyl)-2-(4-sulfophenyl)-2H-tetrazolium)-based cytotoxicity assay. For cytotoxicity testing, ∼2250 cells were seeded into each well of a 384-well microtiter plate and incubated for 24 h. Serial dilutions of the compounds were added in triplicate starting at 25 μM. Cells were further incubated for an additional 48 h at 37 °C in an atmosphere containing 5% CO2. Zero-growth control wells were incubated with 5% Triton X-100 for 5 min prior to MTS addition. Following the addition of MTS to all wells, the plates were incubated for an additional 4 h under the same environmental conditions before taking absorbance measurements. Absorbance values were recorded at 490 nm using a Synergy Neo2 multimode reader (BioTek), and values were normalized based on Triton X-100-lysed and no treatment controls. Samples were run in triplicate in each assay, and the experiments were repeated three times.

T. gondii = T. gondii growth inhibition assay (TgRH-Luc:GFP-infected HFF cells); type: cell-based; conditions: Toxoplasma gondii, 10 µM to 156 nM, Figure 2E
Procedure: T. gondii growth inhibition assays: The T. gondii inhibition assay was described previously. Briefly, HFF cells were seeded onto white-sided, clear-bottom 96 well plates, grown to confluence, and then 5000 TgRH-Luc:GFP parasites were added to each well. At 24 hpi, compounds or DMSO were added. The growth of the parasites was determined by relative luminescence at 48 hpi using Promega Bright-Glo (Promega, Madison, WI, USA) substrate. Plates were read, and the percent inhibition of parasite growth was calculated as described above. Determination of -static versus -cidal activity was conducted as indicated above, with parasite growth quantified after 48 h of infection. Each sample was run in triplicate, and each experiment was repeated three times.

[1] = Serum biochemical analysis of infected and treated IFNγ −/− mice; type: in vivo, C57BL/6 IFNγ −/− mice
Procedure: (§2) Inhibition of C. parvum infection in IFN-gamma knock-out (IFNγ −/−) mice: Twelve female C57BL/6 IFNγ −/− mice (4 weeks old) from the Jackson Laboratory were housed in a controlled environment with a 12 h light/dark cycle and access to food and water ad libitum. Cp-NLuc oocysts were isolated from infected mouse feces and purified using a sodium chloride density gradient. Mice were inoculated via oral gavage with a suspension of 10^4 oocysts in 50 µL sterile PBS. On days 5 and 6 post-infection, mice were treated with 4 mg/kg of oidiolactone A or DMSO vehicle control every 12 h for a total of four doses (6 mice per treatment group). Fecal samples were collected daily and stored at −20 °C until analysis. Feces were homogenized in a lysis buffer solution, centrifuged, and the supernatant was incubated with Nano-Glo® substrate in a 96-well plate, as previously described. Luminescence was measured in a microplate reader immediately after substrate addition. Oocyst shedding, measured in RLUs/gram of feces, was plotted over time, and the area under the curve was determined for each mouse. Mice were sacrificed 14 days post-infection, and serum was collected for biochemical analysis. Biochemical analyses were performed using the Beckman Coulter AU480 automated analyzer (Beckman Coulter, Brea, CA, USA) at the Clinical Pathology Laboratory, Veterinary Medical Center, University of Minnesota.

HFF cells = assay: HFF cytotoxicity assay; type: cell-based
Procedure: as §1

P. falciparum line Dd2 = assay: Plasmodium falciparum growth inhibition assay (SYBR Green I), Dd2
Procedure: Plasmodium falciparum growth inhibition assay: Antiplasmodial EC50 results were determined using a fluorescence-based SYBR Green I assay performed using asynchronous cultures [30, 35]. […] Plates were subsequently frozen at −80 °C to facilitate lysis. […] Relative fluorescence units (RFUs) were normalized based on chloroquine-treated and no treatment controls. Serial dilutions of compounds were prepared in RPMI with final assay conditions of ≤0.2% DMSO. Each assay was conducted in triplicate with three biological replicates.

C. parvum = assay: Inhibition of C. parvum infection in IFNγ −/− mice; type: in vivo, C57BL/6 IFNγ −/− mice; conditions: 4 mg/kg oral gavage every 12 h, four doses, days 5 and 6 post-infection, AUC of RLUs/gram feces
Procedure: as §2

[2] = system: C. parvum asexual and sexual stages; assay: C. parvum asexual/sexual stage assay (4 h treatment windows); type: cell-based, Cryptosporidium parvum
Procedure: To determine -static versus -cidal activity, the infection assay was conducted as described, but infected cells were treated with compounds for 30 min up to 24 h. The compounds were removed after the designated times, and infection was quantified at 72 h post-infection. To determine the activity of the compounds against asexual and sexual stages of the parasite, compounds were added for 4 h windows at times corresponding to asexual or sexual development. Parasite proliferation was then determined at 72 h post-infection. For all assays, each sample was run in triplicate, and three biological replicates were performed.

## CO[C@H]1OC(=O)C=C2[C@@]13O[C@@H]3[C@H]1OC(=O)[C@@]3(C)CCC[C@@]2(C)[C@@H]13 [compound 1, oidiolactone A]
HCT-8 cells; confluent
  TC50 HCT-8 (confluent): > 30 µM
HCT-8 cells; confluent HCT-8, conditions of the infection assay, 48 h, cellular ATP
  toxicity to host cells (no toxicity up to): > 100 µM
HCT-8 cells; sub-confluent
  TC50 HCT-8 (sub-confluent): 29.7 ± 1.8 µM
HCT-8 cytotoxicity assay
  EC50 at 48 h: 29.7 µM
HepG2 human hepatocytes
  TC50 HepG2: > 25 µM
T. gondii
  EC50: 1630 nM
[1]; 4 mg/kg x 4 doses, serum day 14
  signs of acute toxicity (liver, renal, metabolic, cardiac functions, protein status, electrolytes vs control): no statistically significant differences
[1]; serum, mean ± SD
  LIH (sum of lipemia, icterus, and hemolysis scores per mouse): 1.5 ± 0.71
[1]; serum, mean ± SD of two mice
  ALP: 182.00 ± 15.56 U/L
  ALT: 37.50 ± 6.36 U/L
  AST: 229.50 ± 31.82 U/L
  Alb: 3.30 ± 0.14 g/dL
  Amy: 456.00 ± 80.61 U/L
  An Gap (calc.): 27.00 ± 1.41
  BUN: 21.50 ± 4.95 mg/dL
  CK: 1618.00 ± 376.18 U/L
  Ca: 10.55 ± 0.07 mg/dL
  Chol: 92.50 ± 7.78 mg/dL
  Creat: 0.00 ± 0.00 mg/dL
  GGT: 0.00 ± 0.00 U/L
  Glob (calc.): 1.55 ± 0.07 g/dL
  Gluc: 280.00 ± 15.56 mg/dL
  HCO3: 14.85 ± 1.48 mmol/L
  K: 5.15 ± 0.07 mmol/L
  Mg: 2.75 ± 0.07 mg/dL
  Na: 149.50 ± 0.71 mmol/L
  Osmol (calc.): 310.00 ± 1.41
  Phos: 10.25 ± 0.35 mg/dL
  T. Bili: 0.10 ± 0.00 mg/dL
  TP: 4.85 ± 0.21 g/dL
HFF cells; confluent
  TC50 HFF (confluent): > 30 µM
HFF cells; confluent HFF, conditions of the infection assay, 24 h, cellular ATP
  toxicity to host cells (no toxicity up to): > 100 µM
HFF cells; sub-confluent
  cytotoxicity against sub-confluent HFF: no cytotoxicity observed
P. falciparum line Dd2
  SI: selectivity index=EC50 HepG2/ EC50 compound: > 11
P. falciparum line Dd2; Plasmodium falciparum, DD2, 72 h, read-out: EC50 Dd2 (M)
  EC50: 2.26e-06 ± 4.6e-07 M
C. parvum
  reduction in C. parvum oocyst shedding: 70%
[2]; 7.5 μM, 4 h intervals
  activity against gamete stages: no activity
[2]; Cryptosporidium parvum, 4 h intervals post-infection, read 72 h, read-out: inhibition of parasites in asexual stage and transition to sexual stages
  inhibition at 7.5 µM: 20 to 75%

Reference: paper PMC12654037, “Norditerpene Natural Products from Subterranean Fungi with Anti-Parasitic Activity” (Microorganisms, 2025)
